Results taken from US20050032873A1, “3-Amino chroman and 2-amino tetralin derivatives” (Wyeth, priority 2003, published 2005).
Counter-ions that a name gives are not always drawn. Like-named read-outs stand apart in the source and are kept apart here.

Legend:
5-HT1A receptor [1] = target: T1, 5-HT1A receptor (Homo sapiens, UniProt P08908); assay: 5-HT1A receptor affinity: displacement of [3H] 8-OH-DPAT; type: binding; set-up: expressed in transfected cells; conditions: displacement of [3H] 8-OH-DPAT; CHO cells stably transfected with human 5-HT1A receptors; read-out: 5-HT1A Receptor Affinity Ki
T1 sequence (P08908 1-422): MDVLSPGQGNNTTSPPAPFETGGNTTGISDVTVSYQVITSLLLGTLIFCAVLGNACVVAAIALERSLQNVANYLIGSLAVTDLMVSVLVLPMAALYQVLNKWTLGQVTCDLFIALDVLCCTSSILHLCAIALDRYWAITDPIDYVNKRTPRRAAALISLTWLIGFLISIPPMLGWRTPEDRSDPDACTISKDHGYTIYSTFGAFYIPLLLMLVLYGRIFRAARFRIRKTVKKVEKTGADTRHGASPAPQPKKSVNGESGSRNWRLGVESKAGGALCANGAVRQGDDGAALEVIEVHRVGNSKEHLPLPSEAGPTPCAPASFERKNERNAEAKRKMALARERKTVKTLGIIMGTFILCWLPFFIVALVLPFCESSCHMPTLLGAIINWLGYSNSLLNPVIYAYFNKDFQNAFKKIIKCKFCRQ

serotonin transporter = target: T2, serotonin transporter (Rattus norvegicus, UniProt P31652); assay: 5-HT transporter affinity: displacement of 3H-paroxetine from male rat cortical membranes; type: binding; conditions: displacement of 3H-paroxetine; male rat cortical membranes; read-out: 5-HT Transporter Affinity Ki
T2 construct: displace ^3H-paroxetine from male rat cortical membranes; from tissue; host or cells: male rat cortical membranes

5-HT1A receptor [2] = target: T1, 5-HT1A receptor; assay: cAMP accumulation assay, 5-HT1A function; type: cell-based; conditions: for IC50: cells marked IC50 (antagonist), read-out: 5-HT1A Function cAMP IC50; for Emax / 5-HT1A Function cAMP (Emax): in brackets after EC50 or IC50; for Emax: read-out: 5-HT1A Function cAMP (Emax); for EC50: cells marked EC50 (agonist)
[3] = target: T3, cloned human 5-HT1A receptors (Homo sapiens, UniProt P08908); assay: 35S-GTPγS binding assay, 5-HT1A function; type: biochemical; conditions: for IC50: antagonist potency, reversal of 8-OH-DPAT, read-out: 5-HT1A Function GTPγS IC50; for EC50: agonist potency
T3 construct: expressed in transfected cells
T3 sequence (P08908 1-422): T1 sequence (P08908 1-422)

[4] = maximum inhibitory effect, in brackets after IC50, read-out: 5-HT1A Function GTPγS (Imax)
[5] = maximum stimulatory effect, in brackets after EC50, read-out: 5-HT1A Function GTPγS (Emax)
[6] = maximum stimulatory effect, in brackets after EC50

T2 sequence (P31652 whole entry): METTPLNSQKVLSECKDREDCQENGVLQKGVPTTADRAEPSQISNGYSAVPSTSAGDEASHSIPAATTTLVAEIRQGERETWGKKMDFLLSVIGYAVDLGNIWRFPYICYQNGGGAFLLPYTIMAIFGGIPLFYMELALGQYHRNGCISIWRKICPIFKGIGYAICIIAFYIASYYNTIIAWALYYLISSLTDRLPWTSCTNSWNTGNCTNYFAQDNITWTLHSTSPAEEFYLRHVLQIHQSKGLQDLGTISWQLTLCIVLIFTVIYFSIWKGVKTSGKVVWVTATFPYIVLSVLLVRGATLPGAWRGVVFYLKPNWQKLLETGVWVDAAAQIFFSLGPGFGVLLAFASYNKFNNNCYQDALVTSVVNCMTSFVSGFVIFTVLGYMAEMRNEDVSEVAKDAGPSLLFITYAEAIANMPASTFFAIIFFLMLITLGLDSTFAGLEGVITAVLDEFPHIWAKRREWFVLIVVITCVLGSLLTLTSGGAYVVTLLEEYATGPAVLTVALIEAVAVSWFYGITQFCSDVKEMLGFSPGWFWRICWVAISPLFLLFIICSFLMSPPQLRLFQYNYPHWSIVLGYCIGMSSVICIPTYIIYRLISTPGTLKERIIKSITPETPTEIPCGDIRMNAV

Molecule	Ki (5-HT1A receptor [1])	Ki (serotonin transporter)	IC50 (5-HT1A receptor [2])	Emax (5-HT1A receptor [2])	IC50 [3]	Emax [3, 4]	EC50 [3]	Emax [3, 5]	melting point	EC50 (5-HT1A receptor [2])	5-HT1A Function cAMP (Emax) (5-HT1A receptor [2])	5-HT1A Function GTPγS (Emax) [3, 6]
NC(=O)c1ccc(F)c2c1CC(NCCCc1c[nH]c3ccc(F)cc13)CO2 (stereo not shown) (as salt: hydrochloride) [Compound 1, 8-fluoro-3-{[3-(5-fluoro-1H-indol-3-yl)propyl]amino}chromane-5-carboxamide]	–	–	–	–	–	–	–	–	122 °C (dec.)	–	–	–
CCCN(CCCc1c[nH]c2ccc(F)cc12)C1COc2c(F)ccc(C(N)=O)c2C1 (stereo not shown) (as salt: hydrochloride) [Compound 2, 8-fluoro-3-{[3-(5-fluoro-1H-indol-3-yl)propyl](propyl)amino}chromane-5-carboxamide]	–	–	–	–	–	–	–	–	125 °C (dec.)	–	–	–
NC(=O)c1ccc(F)c2c1CC(N(CCCc1c[nH]c3ccc(F)cc13)CC1CC1)CO2 (stereo not shown) (as salt: hydrochloride) [Compound 5, 3-{(cyclopropylmethyl)[3-(5-fluoro-1H-indol-3-yl)propyl]amino}-8-fluorochromane-5-carboxamide]	–	–	–	–	–	–	–	–	121 °C (dec.)	–	–	–
CC(C1CC1)N(CCCc1c[nH]c2ccc(F)cc12)C1COc2c(F)ccc(C(N)=O)c2C1 (stereo not shown) (as salt: hydrochloride) [Compound 6, 3-{(1-cyclopropylethyl)[3-(5-fluoro-1H-indol-3-yl)propyl]amino}-8-fluorochromane-5-carboxamide]	–	–	–	–	–	–	–	–	124 °C (dec.)	–	–	–
NC(=O)c1ccc(F)c2c1CC(N(CCC(=O)c1c[nH]c3ccc(F)cc13)C1CCC1)CO2 (stereo not shown) (as salt: hydrochloride) [Compound 8, 3-{cyclobutyl[3-(5-fluoro-1H-indol-3-yl)-3-oxopropyl]amino}-8-fluorochromane-5-carboxamide]	–	–	–	–	–	–	–	–	139 °C (dec.)	–	–	–
COC(=O)c1ccc(F)c2c1CC(NCCCc1c[nH]c3ccc(F)cc13)CO2 (stereo not shown) (as salt: hydrochloride) [Compound 10, Methyl 8-fluoro-3-{[3-(5-fluoro-1H-indol-3-yl)propyl]amino}chromane-5-carboxylate]	–	–	–	–	–	–	–	–	219 °C (dec.)	–	–	–
NC(=O)c1ccc(F)c2c1CC(N(CCCCn1ccc3ccc(F)cc31)CC1CC1)CO2 (stereo not shown) [Compound 195, 3-{(Cyclopropylmethyl)[4-(6-fluoro-1H-indol-1-yl)butyl]amino}-8-fluorochromane-5-carboxamide]	3.25 nM	12.5 nM	–	58%	371 nM	100%	–	–	–	21.9 nM	–	–
NC(=O)c1ccc(F)c2c1CC(N(CCCCn1ccc3c(F)cccc31)CC1CC1)CO2 (stereo not shown) [Compound 203, 3-{(Cyclopropylmethyl)[4-(4-fluoro-1H-indol-1-yl)butyl]amino}-8-fluorochromane-5-carboxamide]	9.64 nM	161 nM	–	72%	6060 nM	80%	–	–	–	216 nM	–	–
[3-(5-fluoro-1H-indol-3-yl)-propyl]-(8-fluoro-5-methoxychroman-3-yl)propylamine [Compound 26]	19.4 nM	12.5 nM	–	–	–	–	210 nM	–	–	23.6 nM	83.5%	79.5%
[3-(5-fluoro-1H-indol-3-yl)-propyl]-((3R)-5-methoxychroman-3-yl)propylamine [Compound 24]	8.87 nM	9.75 nM	–	–	–	–	48.3 nM	–	–	7.02 nM	88.5%	91.7%
[3-(5-fluoro-1H-indol-3-yl)-propyl]-((3S)-5-methoxychroman-3-yl)propylamine [Compound 25]	24.3 nM	16.5 nM	–	–	–	–	155 nM	–	–	1.06 nM	93.5%	88%

Further lines, with some results ahead:

Ki (5-HT1A receptor [1])	Ki (serotonin transporter)	IC50 (5-HT1A receptor [2])	Emax (5-HT1A receptor [2])	IC50 [3]	Emax [3, 4]	EC50 [3]	Emax [3, 5]	Molecule	melting point	EC50 (5-HT1A receptor [2])	5-HT1A Function cAMP (Emax) (5-HT1A receptor [2])	5-HT1A Function GTPγS (Emax) [3, 6]
124 nM	122 nM	166 nM	0%	1450 nM	64%	–	–	C[C@@H](CCN(C1CCC1)[C@@H]1COc2c(F)ccc(C(N)=O)c2C1)c1c[nH]c2ccc(F)cc12 [Compound 153b, (3S)-3-{cyclobutyl[(3S)-3-(5-fluoro-1H-indol-3-yl)butyl]amino}-8-fluorochromane-5-carboxamide]	–	–	–	–
83.8 nM	768 nM	–	0%	–	–	1200 nM	70%	CCN(CCc1coc2c(OC)cccc12)C1COc2c(F)ccc(C(N)=O)c2C1 (stereo not shown) [Compound 157, 3-{ethyl[2-(7-methoxy-1-benzofuran-3-yl)ethyl]amino}-8-fluorochromane-5-carboxamide]	–	–	–	–
232 nM	120 nM	–	0%	–	–	10600 nM	59%	CCCN(CCc1coc2c(OC)cccc12)C1COc2c(F)ccc(C(N)=O)c2C1 (stereo not shown) [Compound 158, 8-fluoro-3-[[2-(7-methoxy-1-benzofuran-3-yl)ethyl](propyl)amino]chromane-5-carboxamide]	–	–	–	–
33.8 nM	127 nM	948 nM	0%	–	–	1020 nM	51%	COc1cccc2c(CCN(CC3CC3)C3COc4c(F)ccc(C(N)=O)c4C3)coc12 (stereo not shown) [Compound 160, 3-{(cyclopropylmethyl)[2-(7-methoxy-1-benzofuran-3-yl)ethyl]amino}-8-fluorochromane-5-carboxamide]	–	–	–	–
2.09 nM	61.5 nM	–	0%	–	–	45.8 nM	87%	CCN(CCCc1coc2c(OC)cccc12)C1COc2c(F)ccc(C(N)=O)c2C1 (stereo not shown) [Compound 162, 3-{ethyl[3-(7-methoxy-1-benzofuran-3-yl)propyl]amino}-8-fluorochromane-5-carboxamide]	–	–	–	–
0.74 nM	539 nM	–	0%	–	–	4.56 nM	52%	CCCN(CCCc1coc2c(OC)cccc12)C1COc2c(F)ccc(C(N)=O)c2C1 (stereo not shown) [Compound 163, 8-fluoro-3-[[3-(7-methoxy-1-benzofuran-3-yl)propyl](propyl)amino]chromane-5-carboxamide]	–	–	–	–
11.9 nM	428 nM	116 nM	0%	446 nM	100%	–	–	COc1cccc2c(CCCN(C3CCC3)C3COc4c(F)ccc(C(N)=O)c4C3)coc12 (stereo not shown) [Compound 164, 3-{cyclobutyl[3-(7-methoxy-1-benzofuran-3-yl)propyl]amino}-8-fluorochromane-5-carboxamide]	–	–	–	–
1.06 nM	913 nM	52.3 nM	0%	116 nM	91%	211 nM	22%	COc1cccc2c(CCCN(CC3CC3)C3COc4c(F)ccc(C(N)=O)c4C3)coc12 (stereo not shown) [Compound 165, 3-{(cyclopropylmethyl)[3-(7-methoxy-1-benzofuran-3-yl)propyl]amino}-8-fluorochromane-5-carboxamide]	–	–	–	–
3.49 nM	187 nM	50.8 nM	0%	–	–	243 nM	76%	CCN(CCCCc1coc2c(OC)cccc12)C1COc2c(F)ccc(C(N)=O)c2C1 (stereo not shown) [Compound 168, 3-{ethyl[4-(7-methoxy-1-benzofuran-3-yl)butyl]amino}-8-fluorochromane-5-carboxamide]	–	–	–	–
1.48 nM	528 nM	11.3 nM	0%	265 nM	100%	–	–	CCCN(CCCCc1coc2c(OC)cccc12)C1COc2c(F)ccc(C(N)=O)c2C1 (stereo not shown) [Compound 169, 8-fluoro-3-[[4-(7-methoxy-1-benzofuran-3-yl)butyl](propyl)amino]chromane-5-carboxamide]	–	–	–	–
0.72 nM	457 nM	103 nM	0%	158 nM	100%	–	–	COc1cccc2c(CCCCN(CC3CC3)C3COc4c(F)ccc(C(N)=O)c4C3)coc12 (stereo not shown) [Compound 170, 3-{(cyclopropylmethyl)[4-(7-methoxy-1-benzofuran-3-yl)butyl]amino}-8-fluorochromane-5-carboxamide]	–	–	–	–
4.27 nM	11200 nM	108 nM	0%	404 nM	100%	–	–	COc1cccc2c(CCCCN(C3CCC3)C3COc4c(F)ccc(C(N)=O)c4C3)coc12 (stereo not shown) [Compound 171, 3-{cyclobutyl[4-(7-methoxy-1-benzofuran-3-yl)butyl]amino}-8-fluorochromane-5-carboxamide]	–	–	–	–
37.4 nM	27.1 nM	–	77.5%	233 nM	100%	–	–	CCN(CCCCn1ccc2cccc(F)c21)C1COc2c(F)ccc(C(N)=O)c2C1 (stereo not shown) [Compound 189, 3-{Ethyl[4-(7-fluoro-1H-indol-1-yl)butyl]amino}-8-fluorochromane-5-carboxamide]	–	286 nM	–	–
